The results in this text go back to ChEMBL document CHEMBL3507680, “University of Dundee, Gates Library screen for HepG2 cell viability”.

The data set is described as follows: Human HepG2 cell viability assay in 384 well format. The following applies: HepG2 cells, read-out: Inhibition. Also noted: dose 125 nL, time 70.5 hour; cytotoxicity at 70.5 h: concentration not given beside the values. In kind it is toxicity, cell-based.
With `CSc1nc(N)cc(N2C[C@@H]3CC[C@H](C2)N(Cc2cscn2)C3=O)n1`, the cytotoxicity at 70.5 h stood at 7.64%.
`O=S(=O)(NCCC(O)c1cccs1)c1ccccc1` (stereo unspecified): the cytotoxicity at 70.5 h was -5.21%.
With `N#Cc1csc(CNCCOc2ncccc2Cl)c1`, the cytotoxicity at 70.5 h worked out at 8.52%.
Regarding `COc1cc(C)ccc1OCCC(=O)N1CCC(C(N)=O)C1` (stereo unspecified), the cytotoxicity at 70.5 h was -10.8%.
On to `Cc1ccccc1C(=O)NCc1ccc(N2CCNC(=O)C2)c(F)c1`, for which the cytotoxicity at 70.5 h is -8%.
Then `O=c1cc(-c2ccccc2)nc2n1CCCCC2`, with 23.6%.
Consider `Cc1n[nH]c(C)c1CN1CCC(c2cc(C(C)C)n[nH]2)CC1`, for which the cytotoxicity at 70.5 h is 1.2%.
Then `COCc1ncc(-c2nccn2CCN(C)C)cn1`, with -2.63%.
Then `O=c1n(CCSCCOc2ccc(Br)cc2)nc2ccccn12`, with -10.7%.
Then `Cc1nc2cc(O)nn2c(C)c1CCC(=O)NCCc1nccn1C`, with -10.9%; and `O=C(CCCNC(=O)Nc1ccc(F)cc1)Nc1cn[nH]c1`, with -7.73%.
With `CN1CCC(c2nnc3n2CCN(S(=O)(=O)c2ccccc2)C3)CC1`, the cytotoxicity at 70.5 h is -5.15%.
Then `CN(C)C(=O)N1CCCn2nc(CNC(=O)CCc3cccs3)cc2C1`, with 0.772%.
Then `Cc1ncc2c(n1)CN(Cc1ncc(C(C)(C)C)o1)CC2`, with -13.9%.
Then `CN(Cc1cccnc1)Cc1cncc2c1CCN(c1ccccn1)C2`, with 2.24%; and `CNS(=O)(=O)c1cccc(CNC(=O)CCc2ccsc2)c1`, with -4.01%; and `CC(C)n1cnc(C2CN(C)c3ccc(C(=O)NCC4CC4)cc32)n1` (stereo unspecified), with -3.88%.
As for `CC(C)N(C)CC(=O)NCCc1nc(C(F)(F)F)cs1`, the cytotoxicity at 70.5 h is -5.26%.
Then `c1coc(-c2nc3c(c(NCc4n[nH]c5c4CCC5)n2)CCNCC3)c1`, with 7.72%.
Then `CC(CS(C)(=O)=O)N(C(=O)CCc1cccc(F)c1)C1CC1` (stereo unspecified), with 12.6%; and `Cc1csc2ncn(C(C)Cc3cccnc3)c(=O)c12` (stereo unspecified), with -4.53%.
As for `Cn1ccc(NC(=O)CN2CCN(C3CCCC3)C(=O)C2)n1`, the cytotoxicity at 70.5 h is -4.86%.
`CC(C)n1cc(C(=O)NCCc2cn3ccsc3n2)cn1`: the cytotoxicity at 70.5 h worked out at 13.8%.
Then `CC(C)NC(=O)N[C@H]1C[C@@H](Cc2cc(CN3CCOCC3)on2)C1(C)C`, with -8.22%; and `CCn1ncnc1CN1CCc2[nH]cnc2C1Cc1ccccc1` (stereo unspecified), with -5.67%; and `CCn1nc2c(cc1=O)CN(Cc1nc3ccccc3c(=O)[nH]1)CC2`, with 0.253%.
Then `CCOc1ncnc2c1CCN(C(=O)NCc1cccnc1)CC2`, with 6.36%.
Turning to `CCn1c(N)nc2cc(C(=O)N3CCC(N4CCCC4)CC3)cnc21`, the cytotoxicity at 70.5 h was -5.99%.
Then `CCC(NC(=O)C1CCN(S(=O)(=O)N(C)C)CC1)c1ccc(C)c(C)c1` (stereo unspecified), with -5.81%; and `O=C(CCCc1ccccn1)N1CCOc2ccc(F)cc21`, with 1.36%.
Then `CCC(C)N(Cc1ccsc1)C(=O)c1ccc(CO)cc1` (stereo unspecified), with -0.23%.
Then `O=C(NCc1ccc2c(c1)OCO2)c1ccccc1C1CCNC1` (stereo unspecified), with 38%; and `CC(C)(C)C(O)CN1CCN(C(=O)COCC2CC2)CC1` (stereo unspecified), with 1.65%; and `CC(C)(O)CN1CCN(C(=O)c2cccn2Cc2ccncc2)CC1`, with -9.5%.
Turning to `Cc1nonc1NC(=O)C1SCCc2ccccc21` (stereo unspecified), the cytotoxicity at 70.5 h turned out to be 2.97%.
Then `Cc1ccc(CNc2cc(N3CCCC3CO)ncn2)s1` (stereo unspecified), with -0.592%; and `O=S(=O)(c1ccc(F)cc1)N1CCCC1c1cc[nH]n1` (stereo unspecified), with -7.22%; and `Cc1ocnc1C(=O)N(C)[C@@H]1CC[C@@H](n2ccnc2C)[C@@H]1O`, with -7.34%.
Then `COc1ccc(-c2cc(C(=O)NCCCn3ccnc3C)n(C)n2)cc1`, with -4.65%.
Then `CCN(CCNS(=O)(=O)C1CCOCC1)C(=O)OC(C)(C)C`, with -5.67%; and `Cc1ccccc1SCC(=O)NC1CCC(O)CC1` (stereo unspecified), with 7.04%; and `CCN1CC(Oc2ccc(Cl)cc2)=NC(SCC(=O)c2ccccc2)=N1`, with 12.1%.
In the case of `COc1ccc(OCC(=O)NS(=O)(=O)c2cc(C)ccc2C)cc1`, the cytotoxicity at 70.5 h was -6.75%.
Then `O=C1CCC2(CCCN(CCn3cc(Cl)cn3)C2)CN1C1CCCC1` (stereo unspecified), with -19.7%; and `Cn1cc(-c2nc(CNCCn3cccn3)cs2)cn1`, with 12.5%.
Then `COc1cccc(S(=O)(=O)NC(=O)CC2CCCO2)c1` (stereo unspecified), with 21.5%; and `CC(C)CCn1cc(C(C(=O)O)N2CCC(c3ccncc3)CC2)cn1` (stereo unspecified), with 19.8%; and `N#CC1(C(=O)N2CCN(Cc3cscn3)CC2)CCCCC1`, with -4.74%.
In the case of `Cc1noc(C)c1C(=O)N1CCSc2ccc(Cl)cc21`, the cytotoxicity at 70.5 h stood at 11.5%.
Then `COC(C)(C)CC(C)NCc1cc(-c2ccco2)on1` (stereo unspecified), with -11.4%; and `Cc1cc(NC(=O)NCC(C)O)n(C)n1` (stereo unspecified), with 0.0779%; and `CNc1cc(-c2cc(OC)c(OC)c(OC)c2)ncn1`, with -6.66%.
As for `CC(c1nc(C(C)(C)C)no1)N1CCC(N2CCCC2)CC1` (stereo unspecified), the cytotoxicity at 70.5 h is 4.89%.
Then `Cc1nc(CN(C)C(=O)CNC(=O)c2ccc(C#N)cc2)cs1`, with -8.22%; and `O=C1CC(NS(=O)(=O)N2CCOCC2)CN1CCc1ccccc1` (stereo unspecified), with -3.7%.
Then `Cc1noc(C)c1CS(=O)(=O)CC(=O)N1c2ccccc2CC1C` (stereo unspecified), with -12%; and `CN(Cc1ccsc1)C(=O)CN1CCCC1Cn1cccn1` (stereo unspecified), with -13.8%.
`OC1(CNCCSc2ccccn2)CNCCOC1` (stereo unspecified): the cytotoxicity at 70.5 h was 1.38%.
Then `CCOCCn1c(=O)n(CCC(C)C)c2ncc(C(=O)O)cc21`, with 1.96%; and `Cc1ccc(-c2cc(CN3CCCC(Cn4cncn4)C3)on2)cc1` (stereo unspecified), with 27.6%.
For `COc1ccc(COCC(O)CNC(=O)c2cc(C)oc2C)cc1` (stereo unspecified), the cytotoxicity at 70.5 h was determined as 1.97%.
Then `CCCC(=O)Nc1cccc([C@H]2C[C@@H](NC(C)=O)CCO2)c1`, with -12.2%; and `OCc1cn([C@@H]2c3ccccc3C3(CCNCC3)[C@H]2O)nn1`, with -9%.
Then `Cc1noc(C)c1CNC(=O)N1CCC(CO)CC1`, with -3.59%; and `Cc1sc(C(=O)N(C)S(C)(=O)=O)cc1-c1ccc(F)cc1`, with -2.76%.
Then `Cc1ccc(C)c(CN(CC(N)=O)C(C)C)c1`, with -1.28%; and `O=C(Cc1ccco1)N1C[C@@H]2COC[C@]2(COCC2CCOCC2)C1`, with -7.33%.
`CN(C)S(=O)(=O)CCCOc1cccc(-n2ccnc2)c1`: the cytotoxicity at 70.5 h was -3.93%.
Then `Cc1ccccc1CSc1ncc(Br)c(C(=O)O)n1`, with -5.71%; and `CC(C)c1cc(-c2nn3c(C(C)C)nnc3s2)[nH]n1`, with -11.4%.
Then `Cc1csc2c(N3CCC(NCCCc4ccncc4)CC3)ncnc12`, with -7.45%; and `NCC1Cc2cc(F)cc(-c3cnccn3)c2O1` (stereo unspecified), with -3.38%.
In the case of `CS(=O)(=O)N1CCCC12CCCN(C(=O)c1ccno1)C2` (stereo unspecified), the cytotoxicity at 70.5 h was -9.08%.
For the compound `CC(=O)NCC(=O)N1CCC2(CC1)NC(=O)CC2c1cnn(C)c1` (stereo unspecified), the cytotoxicity at 70.5 h was -8.17%.
Then `CN(C)C(=O)CN1CCC2(CCCN(Cc3ccsc3)C2)C1=O` (stereo unspecified), with -15.6%; and `O=C(Cc1csc(-c2ccccn2)n1)NCCCN1CCCCCC1=O`, with -76.6%.
With `O=C(Nc1nnn[nH]1)c1ccc(I)c(F)c1`, the cytotoxicity at 70.5 h came to 4.13%.
Then `Cc1cnn(CC2CCCCN2CC(=O)NCc2ccccn2)c1` (stereo unspecified), with -11%; and `CCSc1ncc(CN2CCN(c3ccc(C#N)cc3)C(=O)C2)cn1`, with -8.4%; and `COc1cc(OC)cc(N2CCC(NCc3occc3C)C2=O)c1` (stereo unspecified), with 31%.
Then `O=S(=O)(C1CC1)N1CCc2ncnc(N3CCOCC3)c2CC1`, with -7.75%; and `COCC1CC2(CCN(C(=O)c3ccc(F)cc3C)CC2)CO1` (stereo unspecified), with -2.86%; and `Cc1ccc(N2CCCC(NCc3cc(C)on3)C2)nn1` (stereo unspecified), with -3.47%.
Then `Cc1cc2cccc(C(=O)N3CCOC4(CNCCOC4)C3)c2o1` (stereo unspecified), with 32.7%.
For `CC(Cn1cccn1)NC(=O)N(C)Cc1ccc(C(N)=O)cc1` (stereo unspecified), the cytotoxicity at 70.5 h worked out at 37.9%.
Then `NS(=O)(=O)c1ccc(N2CCN(CCCc3cn[nH]c3)CC2)cc1`, with 15.8%; and `Cc1cc(C(=O)NCC(O)c2ccc(Cl)s2)c(C)o1` (stereo unspecified), with -10.3%.
Consider `CC(c1cccc(-c2ncccc2C#N)c1)N(C)C` (stereo unspecified), for which the cytotoxicity at 70.5 h was -15.1%.
Then `O=c1c2sccc2nc2n1CCN(Cc1ccc(F)c(F)c1)CC2`, with -9.83%; and `CCNc1nc(N(C)C)nc(-n2cnc(SC)n2)n1`, with -12%.
Then `Cc1cc(N(C)C)nc(C2COCCN2Cc2csc(C)n2)n1` (stereo unspecified), with 10.4%; and `CCc1nc(CN2CCN(C(=O)CCc3ccccc3)CC2)cs1`, with 3%; and `CC(C)(C)n1cc(CNC2CCN(C(=O)c3ccncc3)CC2)cn1`, with -1.24%.
As for `CCc1noc(C2CCCCN2C(=O)c2cccs2)n1` (stereo unspecified), the cytotoxicity at 70.5 h is -4.33%.
Then `CCSc1ncc(CN2CCN(c3ncc(C)c(N)n3)CC2)cn1`, with -9.95%.
Take `CNC(=O)CN(C)C(=O)c1cc(Cl)c(I)cc1OC`: the cytotoxicity at 70.5 h is -18.4%.
Then `COCCN1CCN(CC(=O)N(C)Cc2cccc(F)c2)CC1C` (stereo unspecified), with 0.133%.
As for `O=C(C1CCC1)N1CCN(Cc2ccc(F)cc2)[C@H]2CS(=O)(=O)C[C@H]21`, the cytotoxicity at 70.5 h was -3.17%.
Then `Cc1nc(CN2CCC(O)(c3ccccc3F)CC2)c2ccccn12`, with 11.2%; and `Nc1ncncc1-c1noc([C@@H]2CCCN2Cc2cccnc2)n1`, with -9.55%; and `O=c1[nH]c(COc2ccc(Cl)cc2)nc2c1CCNC2`, with 16.3%.
